# Assay results from the NIST ThermoML archive (doi:10.1021/je034127q).
# Numbers after ± are expanded uncertainties.
# Conditions: Liquid
Structure (SMILES),Critical pressure [kPa],Critical temperature [K]
O=C=O [carbon dioxide],7420 ± 250,304.5 ± 2.5
CO [methanol],8120 ± 250,512.6 ± 2.5
CCCCCC [hexane],3020 ± 250,507.4 ± 2.5
